Results: patent US5684026A, “Aminocyclopentane derivative” (priority 1994, dated 1997)

Legend:
Type in all cases: biochemical
[1] = molecular target: T1, α-Glucosidase (Baker's yeast, EC 3.2.1.20) (Saccharomyces cerevisiae, UniProt P53341); assay: α-Glucosidase enzyme inhibition assay (p-nitrophenyl α-D-glucopyranoside); conditions: for IC50: pH 6.8, 37° C., 30 minutes, read-out: IC50 (M) α-Glucosidase (Baker's yeast)
T1 construct: purchased Sigma; host or cells: Baker's yeast
Description: (§1) By using a 96-well microplate, the absorbance (at 405 nm) of liberated p- or o-nitrophenol was measured with a microplate reader (MPR-4Ai, manufactured by Tosoh Corporation).
(§2) Incubation was carried out at 37° C. by using a natural incubator (Compact NIB-10, manufactured by Iwaki Glass Co., Ltd.).
(§3) The enzymes employed herein [α-glucosidase (Baker's yeast), β-glucosidase (Almonds), α-galactosidase (E. coli), β-galactosidase (E. coli) and β-galactosidase (Bovine Liver)] were all purchased from Sigma.
(§4) The substrates (p- or o-nitrophenylglycoside) of these enzymes were all purchased from Sigma.
1) α-Glucosidase (Baker's yeast, EC 3.2.1.20) [described in H. Halvorson and L. Ellias, Biochim. Biophys. Acta, 30, 28-40 (1958)]
Into each well were introduced an aqueous solution of a sample (1 μl), a 0.66 mM solution of p-nitrophenyl α-D-glucopyranoside in a buffer (98 μl) and a (0.4 mg/ml) enzyme solution in the buffer (1 μl) to give a total volume of 100 μl. After incubating at 37° C. for 30 minutes, the reaction was ceased by adding a 1M aqueous solution of sodium carbonate (100 μl). Then the absorbance (A405) of p-nitrophenol liberated by this enzyme reaction was measured. To give the blank absorbance (Ablank), the sample (1 μl) and the substrate (99 μl) were incubated in the same manner and an aqueous solution of sodium carbonate (100 μl) was added followed by the measurement of the absorbance. […] The sample at each concentration, the blank and the control were treated each in two wells at the same time. As the buffer, a 0.1M phosphate buffer solution (pH 6.8, prepared from KH2 PO4 and K2 HPO4) was employed.

[2] = molecular target: β-Glucosidase (Almonds, EC 3.2.1.21); assay: β-Glucosidase enzyme inhibition assay (p-nitrophenyl β-D-glucopyranoside); conditions: for IC50: pH 5.0, 37° C., 45 minutes
Description: as §1, §2, §3, §4
2) β-Glucosidase (Almonds, EC 3.2.1.21) [described in A. Kobayashi, Agr. Biol. Chem., 26, 203-207 (1962)]
Into each well were introduced an aqueous solution of a sample (1 μl), a 0.33 mM solution of p-nitrophenyl β-D-glucopyranoside in a buffer (98 μl) and a (0.4 mg/ml) enzyme solution in the buffer (1 μl) to give a total volume of 100 μl. After incubating at 37° C. for 45 minutes, the reaction was ceased by adding a 1M aqueous solution of sodium carbonate (100 μl). Then the absorbance (A405) of p-nitrophenol liberated by this enzyme reaction was measured. To give the blank absorbance (Ablank), the sample (1 μl) and the substrate (99 μl) were incubated in the same manner and an aqueous solution of sodium carbonate (100 μl) was added followed by the measurement of the absorbance. […] As the buffer, a 0.1M acetate buffer solution (pH 5.0, prepared from NaOAc and AcOH) was employed. The IC50 was determined in the same manner as employed in the case of α-glucosidase.

[3] = test system: α-Galactosidase (E. Coli, EC. 3.2.1.22); assay: α-Galactosidase enzyme inhibition assay (p-nitrophenyl α-D-galactopyranoside); conditions: pH 6.5, room temperature, 15 minutes
Description: as §1, §3, §4
3) α-Galactosidase (E. Coli, EC. 3.2.1.22) [described in H. Suzuki, S-C. Li and Y-T. Li, J. Biol. Chem., 245, 781-786 (1970)]
Into each well were introduced an aqueous solution of a sample (1 μl), a buffer (74 μl), a 9.9 mM solution of p-nitrophenyl α-D-galactopyranoside in a buffer (20 μl) and a (50 μg/ml) enzyme solution in the buffer (5 μl) to give a total volume of 100 μl. After incubating the resulting mixture at room temperature (20°-30° C.) for 15 minutes, the reaction was ceased by adding a 0.2M borate buffer solution (pH 9.8, prepared from NaOH and H3 BO3, 100 μl). Then the absorbance (A405) of p-nitrophenol liberated by this enzyme reaction was measured. To give the blank absorbance (Ablank), the sample (1 μl), the substrate (20 μl) and the buffer solution (79 μl) were incubated in the same manner and the 0.2M borate buffer solution (100 μl) was added followed by the measurement of the absorbance. To give the control absorbance ([…]), on the other hand, water (1 μl), the substrate (20 μl), the buffer solution (74 μl) and the enzyme solution (5 μl) were incubated in the same manner and the borate buffer solution (100 μl) was added followed by the measurement of the absorbance. A 0.1M phosphate buffer solution (pH 6.5, prepared from KH2 PO4 and K2 HPO4) was employed as the buffer for the enzyme reaction. The IC50 was determined in the same manner as employed in the case of α-glucosidase.

[4] = molecular target: T2, β-Galactosidase (E. Coli, EC. 3.2.1.23) (Escherichia coli, UniProt P00722); assay: β-Galactosidase (E. coli) enzyme inhibition assay (o-nitrophenyl β-D-galactopyranoside)
T2 construct: purchased Sigma; host or cells: E. coli
Description: as §1, §3, §4
4) β-Galactosidase (E. Coli, EC. 3.2.1.23) [described in G. R. Craven, E. Steers, Jr. and C. B. Anfinsen, J. Biol. Chem., 240, 2468-2477 (1965)]
Into each well were introduced an aqueous solution of a sample (2 μl), a buffer (153 μl), a 20 mM solution of o-nitrophenyl β-D-galactopyranoside in a buffer (25 μl), a 100 mM 2-mercaptoethanol (10 μl) and a (10 μg/ml) enzyme solution in the buffer (10 μl) to give a total volume of 200 μl. After incubating at room temperature (20°-30° C.) for 30 minutes, the absorbance (A405) of o-nitrophenol liberated by this enzyme reaction was measured. To give the blank absorbance (Ablank), the sample (2 μl), the substrate (25 μl), the buffer solution (163 μl) and 2-mercaptoethanol (10 μl) were incubated in the same manner followed by the measurement of the absorbance. To give the control absorbance (Acontrol), on the other hand, water (2 μl), the substrate (25 μl), the buffer solution (153 μl), 2-mercaptoethanol (10 μl) and the enzyme solution (10 μl) were incubated in the same manner followed by the measurement of the absorbance. A 50 mM phosphate buffer solution (pH 7.3, prepared from KH2 PO4 and K2 HPO4, containing 1.3 mM of MgCl2) was employed as the buffer for the enzyme reaction. The IC50 was determined in the same manner as employed in the case of α-glucosidase.

[5] = molecular target: β-Galactosidase (Bovine liver. EC 3.2.1.23); assay: β-Galactosidase (Bovine liver) enzyme inhibition assay (o-nitrophenyl β-D-galactopyranoside); conditions: pH 7.3, room temperature, 30 minutes
Description: as §1, §3, §4
5) β-Galactosidase (Bovine liver. EC 3.2.1.23) [described in T. Aoyagi, T. Hazato, M. Kumagai, M. Hamada, T. Takeuchi and H. Umezawa, J. Antibiot., 28, 1006-1008 (1975)]
Into each well were introduced an aqueous solution of a sample (2 μl), a buffer (158 μl), a 20 mM solution of o-nitrophenyl β-D-galactopyranoside in a buffer (25 μl), a 100 mM 2-mercaptoethanol (10 μl) and a (5 mg/ml) enzyme solution in the buffer (5 μl) to give a total volume of 200 μl. After incubating at room temperature (20°-30° C.) for 30 minutes, the absorbance (A405) of o-nitrophenol liberated by this enzyme reaction was measured. To give the blank absorbance (Ablank), the sample (2 μl), the substrate (25 μl), the buffer solution (163 μl) and 2-mercaptoethanol (10 μl) were incubated in the same manner followed by the measurement of the absorbance. […] The IC50 was determined in the same manner as the one employed in the case of α-glucosidase.

T1 sequence (P53341 whole entry): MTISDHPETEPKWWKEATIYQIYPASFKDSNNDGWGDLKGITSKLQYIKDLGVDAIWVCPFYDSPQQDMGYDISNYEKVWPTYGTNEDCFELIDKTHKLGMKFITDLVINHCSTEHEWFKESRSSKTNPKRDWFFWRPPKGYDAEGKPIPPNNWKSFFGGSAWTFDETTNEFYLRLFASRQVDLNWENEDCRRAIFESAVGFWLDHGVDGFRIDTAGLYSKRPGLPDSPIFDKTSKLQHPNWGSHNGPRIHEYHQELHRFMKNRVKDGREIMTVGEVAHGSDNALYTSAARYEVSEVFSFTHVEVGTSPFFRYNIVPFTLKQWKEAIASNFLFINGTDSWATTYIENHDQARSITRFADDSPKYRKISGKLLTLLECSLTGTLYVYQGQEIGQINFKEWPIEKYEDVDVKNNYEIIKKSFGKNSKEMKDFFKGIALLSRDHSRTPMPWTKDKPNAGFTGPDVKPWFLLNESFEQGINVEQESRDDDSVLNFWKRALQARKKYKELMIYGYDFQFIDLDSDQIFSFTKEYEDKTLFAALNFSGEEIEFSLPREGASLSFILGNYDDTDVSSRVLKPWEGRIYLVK
T2 sequence (P00722 2-1024 limits assumed): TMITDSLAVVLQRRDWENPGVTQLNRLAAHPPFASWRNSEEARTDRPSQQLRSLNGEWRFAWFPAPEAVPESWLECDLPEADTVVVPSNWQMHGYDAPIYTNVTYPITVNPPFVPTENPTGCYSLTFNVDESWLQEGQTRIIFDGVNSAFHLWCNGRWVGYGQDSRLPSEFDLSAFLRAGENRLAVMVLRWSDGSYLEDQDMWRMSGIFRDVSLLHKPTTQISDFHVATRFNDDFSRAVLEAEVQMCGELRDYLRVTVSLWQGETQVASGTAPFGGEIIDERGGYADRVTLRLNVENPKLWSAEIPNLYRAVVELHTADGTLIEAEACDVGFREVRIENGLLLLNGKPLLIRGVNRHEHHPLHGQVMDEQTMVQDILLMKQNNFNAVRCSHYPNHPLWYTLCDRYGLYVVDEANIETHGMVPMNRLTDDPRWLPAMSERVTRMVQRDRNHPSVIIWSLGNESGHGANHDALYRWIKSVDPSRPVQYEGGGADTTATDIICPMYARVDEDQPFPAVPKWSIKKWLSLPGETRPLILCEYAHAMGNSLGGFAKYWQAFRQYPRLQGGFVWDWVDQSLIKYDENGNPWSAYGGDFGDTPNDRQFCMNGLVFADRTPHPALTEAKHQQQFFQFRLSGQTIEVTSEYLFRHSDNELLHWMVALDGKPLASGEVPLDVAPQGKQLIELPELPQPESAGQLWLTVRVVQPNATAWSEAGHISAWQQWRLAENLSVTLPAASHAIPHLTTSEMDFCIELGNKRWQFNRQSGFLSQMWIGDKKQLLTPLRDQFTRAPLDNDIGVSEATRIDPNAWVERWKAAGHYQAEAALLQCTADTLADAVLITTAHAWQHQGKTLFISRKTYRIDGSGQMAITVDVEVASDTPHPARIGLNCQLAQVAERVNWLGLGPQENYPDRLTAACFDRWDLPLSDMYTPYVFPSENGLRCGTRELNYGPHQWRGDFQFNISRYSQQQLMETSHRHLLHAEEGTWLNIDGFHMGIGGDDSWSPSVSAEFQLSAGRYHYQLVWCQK

Row | SMILES | inhibitory activity against α-glucosidase (in words) ([1]; compared with deoxynojirimycin, summary of Tables 1 and 2) | IC50 [1] | IC50 [2] | inhibitory activity against β-glucosidase (in words) ([2]; summary of Table 1) | IC50 [3] | IC50 [4] | IC50 [5]
1 | OC[C@@]1(O)[C@@H]2N=C(Nc3ccccc3)O[C@@H]2C(O)[C@@H]1O (stereo in doubt) [Compound 1-1L, (1S,5R,6S,7S,8R)-6-hydroxymethyl-3-phenylamino-2-oxa-4-azabicyclo[3.3.0]oct-3-ene-6,7,8-triol] | remarkably strong inhibitory activities | 2.93e-08 M | > 300 µM | weak inhibitory activities | > 300 µM | > 300 µM | 153 µM
2 | OC[C@@]1(O)[C@H](O)C(O)[C@@H]2OC(Nc3ccccc3)=N[C@@H]21 (stereo in doubt) [Compound 1-1D, (1R,5S,6R,7R,8S)-6-hydroxymethyl-3-phenylamino-2-oxa-4-azabicyclo[3.3.0]oct-3-ene-6,7,8-triol] | – | 2.32e-06 M | > 300 µM | – | > 300 µM | > 300 µM | 3 µM
